Results as given in ChEMBL document CHEMBL1201862, “PubChem BioAssay data set” (2004).
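How tested: cells in 96-well plates exposed to compound for 48 hours at five concentrations. Abbreviation: GI50, concentration required for 50% inhibition of growth.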 Active and inactive are the calls of the source. Rule as the data show it: active = GI50 up to about 1.1 µM and inactive = higher.

Tests used:
Test in all cases: growth of human tumour cells (NCI), 48 h
IGROV-1 = tested on: IGROV-1
COLO 205 = tested on: COLO 205
SF-539 = tested on: SF-539
RXF 393 = tested on: RXF 393
M14 = tested on: M14
MDA-MB-231 = tested on: MDA-MB-231
BT-549 = tested on: BT-549
HCT-116 = tested on: HCT-116
SK-MEL-28 = tested on: SK-MEL-28
HCT-15 = tested on: HCT-15
NCI-H226 = tested on: NCI-H226
EKVX = tested on: EKVX
PC-3 = tested on: PC-3
A498 = tested on: A498
MCF7 = tested on: MCF7
SW-620 = tested on: SW-620
KM12 = tested on: KM12
HT-29 = tested on: HT-29
OVCAR-5 = tested on: OVCAR-5

SMILES	GI50 (IGROV-1)	GI50 (COLO 205)	GI50 (SF-539)	GI50 (RXF 393)	GI50 (M14)	GI50 (MDA-MB-231)	GI50 (BT-549)	GI50 (HCT-116)	GI50 (SK-MEL-28)	GI50 (HCT-15) [µM]	GI50 (NCI-H226)	GI50 (EKVX)	GI50 (PC-3)	GI50 (A498)	GI50 (MCF7)	GI50 (SW-620)	GI50 (KM12)	GI50 (HT-29)	GI50 (OVCAR-5)
O=C1NC(=O)C(COCc2ccccc2)C2=C1SCCC2 (stereo not drawn)	> 100 µM (inactive)	> 100 µM (inactive)	> 100 µM (inactive)	> 100 µM (inactive)	> 100 µM (inactive)	> 100 µM (inactive)	> 100 µM (inactive)	> 100 µM (inactive)	> 100 µM (inactive)	> 100	> 100 µM (inactive)	> 100 µM (inactive)	> 100 µM (inactive)	> 100 µM (inactive)	> 100 µM (inactive)	> 100 µM (inactive)	> 100 µM (inactive)	> 100 µM (inactive)	–
CC12OC1(C)C1C(=O)OCC1C2=O (stereo not drawn)	32.4 µM (inactive)	37.4 µM (inactive)	32.5 µM (inactive)	31.8 µM (inactive)	49.4 µM (inactive)	> 100 µM (inactive)	> 100 µM (inactive)	66.4 µM (inactive)	> 100 µM (inactive)	55	45.9 µM (inactive)	–	52.8 µM (inactive)	> 100 µM (inactive)	61.7 µM (inactive)	45.9 µM (inactive)	44.7 µM (inactive)	49.7 µM (inactive)	59.4 µM (inactive)
Cc1cc(Br)ccc1NC1=CC(=O)C(=O)c2ccccc21	77.6 µM (inactive)	31.6 µM (inactive)	74.8 µM (inactive)	30.5 µM (inactive)	52.1 µM (inactive)	–	–	52.7 µM (inactive)	45.3 µM (inactive)	55.2	39.8 µM (inactive)	> 100 µM (inactive)	–	86.7 µM (inactive)	–	29.9 µM (inactive)	38.5 µM (inactive)	51.2 µM (inactive)	70.8 µM (inactive)
Cc1csc2c(=O)n(COCc3ccccc3)c(=O)[nH]c12	> 100 µM (inactive)	> 100 µM (inactive)	> 100 µM (inactive)	> 100 µM (inactive)	> 100 µM (inactive)	> 100 µM (inactive)	> 100 µM (inactive)	> 100 µM (inactive)	> 100 µM (inactive)	–	> 100 µM (inactive)	66.2 µM (inactive)	> 100 µM (inactive)	> 100 µM (inactive)	95.9 µM (inactive)	> 100 µM (inactive)	> 100 µM (inactive)	> 100 µM (inactive)	> 100 µM (inactive)
CCOC(=O)C(=O)Nc1c(F)cc(F)cc1Br	> 100 µM (inactive)	> 100 µM (inactive)	> 100 µM (inactive)	> 100 µM (inactive)	> 100 µM (inactive)	–	–	> 100 µM (inactive)	> 100 µM (inactive)	> 100	> 100 µM (inactive)	> 100 µM (inactive)	–	> 100 µM (inactive)	–	> 100 µM (inactive)	> 100 µM (inactive)	> 100 µM (inactive)	> 100 µM (inactive)
CCc1cccc(C(C)CC)c1NC(=O)C(=O)C(CC(=O)Nc1ccc(Cl)c(Cl)c1)C(=O)OC (stereo not drawn)	> 100 µM (inactive)	> 100 µM (inactive)	> 100 µM (inactive)	> 100 µM (inactive)	57.1 µM (inactive)	–	–	> 100 µM (inactive)	> 100 µM (inactive)	20.2	> 100 µM (inactive)	> 100 µM (inactive)	–	> 100 µM (inactive)	–	46.7 µM (inactive)	41.5 µM (inactive)	76 µM (inactive)	> 100 µM (inactive)
CCC(/C=C/C1OC(=O)C=CC1C)=C\C(C)C/C=C/C(C)=C/C(C)C(=O)C(C)C(O)C(C)C/C(C)=C/C(=O)O (stereo not drawn)	4.07 µM (inactive)	3.69 µM (inactive)	1.04 µM (active)	1.13 µM (inactive)	5.27e-06 µM (active)	3.4e-06 µM (active)	2.22e-06 µM (active)	1.17 µM (inactive)	2.65 µM (inactive)	1.28	1.67 µM (inactive)	1.92e-05 µM (active)	1.27e-05 µM (active)	2.08 µM (inactive)	1.03 µM (active)	1.11 µM (active)	4.54 µM (inactive)	3.01e-06 µM (active)	6.65 µM (inactive)
O=C1/C(=C/c2ccccc2)CN(C(=O)Oc2ccc([N+](=O)[O-])cc2)C/C1=C\c1ccccc1	6.84 µM (inactive)	7.83 µM (inactive)	9.42 µM (inactive)	6.84 µM (inactive)	0.908 µM (active)	–	–	0.506 µM (active)	3.48 µM (inactive)	2.08	> 10 µM (inactive)	> 10 µM (inactive)	–	> 10 µM (inactive)	–	0.59 µM (active)	0.661 µM (active)	1.42 µM (inactive)	> 10 µM (inactive)
CCC(C)C(Nc1c2ccccc2nc2c(C(=O)NCCN(C)C)cccc12)C(=O)O (stereo not drawn)	14.7 µM (inactive)	6.15 µM (inactive)	–	–	16.2 µM (inactive)	17.6 µM (inactive)	–	4.28 µM (inactive)	23.6 µM (inactive)	7.45	6.92 µM (inactive)	16.2 µM (inactive)	14 µM (inactive)	16.9 µM (inactive)	5.86 µM (inactive)	9.16 µM (inactive)	14.8 µM (inactive)	3.21 µM (inactive)	21.3 µM (inactive)
COC(OC)[C@@H](C)[C@H](O)[C@](C)(O)C1OC(C)(C)OC(C(C)C=C(C)C)C1C (stereo partly drawn)	> 100 µM (inactive)	> 100 µM (inactive)	> 100 µM (inactive)	66.4 µM (inactive)	> 100 µM (inactive)	–	–	> 100 µM (inactive)	> 100 µM (inactive)	> 100	> 100 µM (inactive)	> 100 µM (inactive)	–	> 100 µM (inactive)	–	> 100 µM (inactive)	> 100 µM (inactive)	> 100 µM (inactive)	> 100 µM (inactive)
CC1(C)CC[C@]2(C(=O)O)CCC3(C)C(=CCC4[C@@]5(C)CC[C@H](OC6OCC(O)C(O)C6OC6OC(CO)C(O)C(O)C6O)C(C)(C)C5CC[C@]43C)C2C1 (stereo partly drawn)	2.67 µM (inactive)	1.89 µM (inactive)	2.22 µM (inactive)	1.96 µM (inactive)	1.87 µM (inactive)	–	–	2.81 µM (inactive)	2.33 µM (inactive)	2.17	1.55 µM (inactive)	1.79 µM (inactive)	–	2.18 µM (inactive)	–	2.15 µM (inactive)	2.24 µM (inactive)	2.46 µM (inactive)	2.41 µM (inactive)
CC(C)(C)n1c(=O)[nH]c(=O)n1C(C)(C)C	> 100 µM (inactive)	> 100 µM (inactive)	> 100 µM (inactive)	> 100 µM (inactive)	> 100 µM (inactive)	> 100 µM (inactive)	> 100 µM (inactive)	> 100 µM (inactive)	> 100 µM (inactive)	> 100	> 100 µM (inactive)	> 100 µM (inactive)	> 100 µM (inactive)	> 100 µM (inactive)	> 100 µM (inactive)	> 100 µM (inactive)	> 100 µM (inactive)	> 100 µM (inactive)	> 100 µM (inactive)
